Results published in article PMC5556071, “ATR inhibition facilitates targeting of leukemia dependence on convergent nucleotide biosynthetic pathways” (Nature Communications, 2017).
Values joined by “and” are separate entries in the source; they are usually repeats but may differ in a detail not shown here. Equal values may be shown once.

Test system: CEM cells
Assay: Non-targeted LC-MS metabolite profiling: percent [13C6]glucose labeling and relative metabolite levels
Assay type: cell-based, human
Details: CEM cells, 12 h following release from G1 arrest, replicates #1-#6
Description: To further investigate the functions of dCK and ATR at the G1/S transition in CEM cells, a non-targeted liquid chromatography mass spectrometry (LC-MS) assay was used to determine the utilization of labeled [^13C6]glucose and [^13C9,^15N3]deoxycytidine, the main substrates for de novo and salvage nucleotide biosynthesis, respectively. Of the 166 metabolites identified in CEM cells treated with VE-822 and/or dCKi, 105 metabolites found in all four treatment groups contained glucose-derived ^13C atoms. […] These metabolites included intermediates such as rUTP, rCTP and rCDP in the de novo dCTP biosynthesis (Fig. 1d). […] However, several deoxyribonucleotides, including dCTP, were below the limit of detection of the non-targeted LC-MS approach, raising the concern that the sensitivity of this assay is not sufficient to measure the contribution of the salvage pathway or the ratio of de novo and salvage biosynthesis to these pools. To address this problem, a newly developed targeted MS assay was developed (Fig. 1e and Supplementary Fig. 3). In this assay, samples containing either extracted dNTPs or hydrolyzed DNA from labeled cells are separated by LC for detection by a triple quadrupole mass spectrometer using multiple reaction monitoring (LC-MS/MS-MRM). The first (Q1) and third (Q3) quadrupoles function as mass filters, while the second (Q2) quadrupole serves as a collision chamber (Fig. 1e). For instance, to profile the biosynthetic composition of deoxycytidine (dC) derived from hydrolyzed DNA or dCTP, an intact, protonated dC ion is selected in Q1, followed by fragmentation of the glycosidic bond, which releases protonated cytosine in Q2, that is filtered in Q3 and detected to generate an ion chromatogram. The peak areas for the ion chromatograms of salvage [^13C9,^15N3]dC (red trace), de novo [^13C5]dC (black trace, from [^13C6]glucose) and unlabeled dC (gray trace) (Fig. 1e) are used to determine the relative contributions of the de novo and salvage routes both to dCTP pools and to DNA-incorporated dCTP.
Cells were transferred into RPMI-1640 without glucose and supplemented with 10% dialyzed FBS (Gibco) containing the following labeled substrates: precursors for de novo [U-^13C6]glucose (Sigma-Aldrich, 389374) at 11 mM; precursors for purine salvage [U-^13C10,^15N5]dA (Cambridge Isotopes, CIL 3896), [^15N5]dA (Cambridge Isotopes, NLM-3895) and [^15N5]dG (Cambridge Isotopes, NLM-3899) at 5 µM or as indicated; and precursors for pyrimidine salvage: [U-^13C9,^15N3]dC (Silantes, 124603602) and [U-^13C10,^15N2]dT (Cambridge Isotopes, CNLM-3902) at 5 µM and [^15N2]orotate (Cambridge Isotopes, NLM-1048) at indicated concentrations. The cells were incubated for 12 h or as indicated before sample collection and processing. […]
Non-targeted LC-MS metabolic assays. 1 x 10^6 cells were washed with ice-cold 150 mM ammonium acetate twice before adding 1 mL of ice-cold 80% methanol with 10 nM norvaline as an internal standard. After vigorous vortexing, samples were centrifuged at maximum speed, the aqueous layer was transferred to a glass vial and the metabolites were dried under vacuum. Metabolites were resuspended in 50 μL 70% acetonitrile (ACN) and 5 μL of this solution used for the mass spectrometer-based analysis. The analysis was performed on a Q Exactive (Thermo Scientific) in polarity-switching mode with positive voltage 4.0 kV and negative voltage 4.0 kV. The mass spectrometer was coupled to an UltiMate 3000RSLC (Thermo Scientific) UHPLC system. Mobile phase A was 5 mM ammonium acetate (NH4AcO), pH 9.9, B was acetonitrile and the separation achieved on a Luna […] NH2 100 A column (150 × 2.0 mm, Phenomenex). The flow was 200 μL/min, and the gradient ran from 15% A to 95% A in 18 min, followed by an isocratic step for 9 min and re-equilibration for 7 min. Metabolites were detected and quantified as area under the curve based on retention time and accurate mass (≤ 3 p.p.m.) using the TraceFinder 3.1 (Thermo Scientific). Relative amounts of […]

[1] = metabolite Asp (C00049), listed as V
[2] = metabolite Carnitine (C00318), listed as V
[3] = metabolite G3P (KEGG C00118), listed as V
[4] = metabolite G6P-F6P (KEGG C00668), listed as V
[5] = metabolite GABA (KEGG C00334), listed as V
[6] = metabolite GDP (KEGG C00035), listed as V
[7] = metabolite GMP (KEGG C00144), listed as V
[8] = metabolite GSH (KEGG C00051), listed as V
[9] = metabolite GSSG (KEGG C00127), listed as V
[10] = metabolite GTP (KEGG C00044), listed as V
[11] = metabolite Glc (KEGG C00031), listed as V
[12] = metabolite GlcA (KEGG C00257), listed as V
[13] = metabolite GlcN-6P (KEGG C00352), listed as V
[14] = metabolite GlcNAc-6P (KEGG C00357), listed as V

SMILES: CNCc1ccc(-c2cc(-c3nc(-c4ccc(S(=O)(=O)C(C)C)cc4)cnc3N)on2)cc1 [VE-822]
- Relative level, Asn (metabolite Asn (C00152), listed as V): 1.3 and 1.4 (2×) and 0.9 (3×)
- Glucose labeling, Asp [1]: 22.64% and 22.44% and 22.12% and 21.45% and 21.35% and 21.96%
- Relative level, Asp [1]: 1.8 and 1.3 and 1.4 and 1.5 and 0.9 and 1.0
- Glucose labeling, C (metabolite C (D07769), listed as V): 0.35% and 0.24% and 0.32% and 0.34% and 0.00758% and 0.36%
- Relative level, C (metabolite C, listed as V): 1.9 (2×) and 2.0 and 1.8 and 2.3 and 2.5
- Glucose labeling, Carnitine [2]: 0.0372% and 0.00375% and 0.00443% and 0.00282% and 0.06% and 0.00331%
- Relative level, Carnitine [2]: 0.9 and 1.0 (2×) and 0.7 (2×) and 0.8
- Glucose labeling of G3P [3]: 58.87% and 0.0369% (3×) and 100.00% (2×)
- Relative level of G3P [3]: 0.952 and 0.6 (2×) and 0.2 and 0.456
- Glucose labeling of G6P-F6P [4]: 88.15% and 86.27% and 90.17% and 83.23% and 85.62% and 81.44%
- Relative level of G6P-F6P [4]: 4.7 and 2.5 and 3.5 and 1.9 and 1.1 and 1.0
- Glucose labeling of GABA [5]: 0.05% and 0.04% and 0.0737% (4×)
- Relative level of GABA [5]: 0.9 (2×) and 1.0 and 0.4 (2×) and 0.5
- Glucose labeling of GDP [6]: 66.45% and 57.13% and 62.54% and 65.67% and 61.42% and 68.88%
- Relative level of GDP [6]: 2.9 and 0.7 and 1.2 and 1.1 and 0.647 and 0.351
- Glucose labeling of GMP [7]: 67.56% and 73.95% and 70.72% and 64.86% and 56.63% and 63.18%
- Relative level of GMP [7]: 3.6 and 1.9 (2×) and 2.2 and 0.527 and 0.431
- Glucose labeling of GSH [8]: 22.37% and 21.90% and 25.59% and 18.14% and 18.31% and 18.93%
- Relative level of GSH [8]: 1.4 and 1.1 and 0.9 and 0.6 and 0.557 and 0.5
- Glucose labeling of GSSG [9]: 41.97% and 38.91% and 39.41% and 36.66% and 34.27% and 31.20%
- Relative level of GSSG [9]: 1.0 (2×) and 0.9 and 0.7 and 0.553 and 0.533
- Glucose labeling of GTP [10]: 66.00% and 75.98% and 68.76% and 65.13% and 72.51% and 69.15%
- Relative level of GTP [10]: 1.6 and 0.4 (2×) and 0.8 and 0.9 and 0.378
- Glucose labeling of Glc [11]: 85.14% and 89.26% and 81.87% and 76.15% and 74.50% and 90.17%
- Relative level of Glc [11]: 1.6 and 2.4 and 1.4 and 0.9 (2×) and 3.6
- Glucose labeling of GlcA [12]: 10.98% and 10.19% and 12.71% and 10.94% and 11.47% and 12.23%
- Relative level of GlcA [12]: 0.9 and 0.6 and 0.566 and 0.5 and 0.3 (2×)
- Glucose labeling of GlcN (metabolite GlcN (KEGG C00329)): 0.18%
- Relative level of GlcN (metabolite GlcN (KEGG C00329), listed as V): 0.9 and 1.4 and 1.6 and 1.1 and 0.8 and 1.7
- Glucose labeling of GlcN-6P [13]: 6.56% and 5.43% and 4.48% and 7.20% and 4.32% and 4.29%
- Relative level of GlcN-6P [13]: 0.65 and 0.8 and 0.6 and 0.7 (2×) and 0.653
- Glucose labeling of GlcNAc-6P [14]: 39.94% and 9.75% and 47.59% and 56.84% and 49.88% and 50.30%
- Relative level of GlcNAc-6P [14]: 0.8 and 0.37 and 0.9 and 1.0 and 0.533 and 0.4
